{"source": "paper PMC3161630", "about": "“Targeted Chemotherapy Using a Cytotoxic Somatostatin Conjugate to Inhibit Tumor Growth and Metastasis in Nude Mice” (Clinical Medicine. Oncology, 2008)", "key": {"[1]": {"test_system": "neuroblastoma IMR32 cells", "assay": "Cell proliferation assay (MTT), IMR32", "format": "cell-based, human", "settings": "table: mean ± SEM (n)", "procedure": "(§1) The CHO-R1 and CHO-R2 cell lines, which were transfected with rat SSTR1 and SSTR2, respectively, were a kind gift from Dr. Agnes Schonbrunn (University of Texas—Houston, Houston, TX). Cells were cultured in F-12 medium containing 10% fetal calf serum. All other human tumor cell lines, including neuroblastoma IMR32, leukemia MOLT-4, pancreatic cancer CFPAC-1, prostate cancer PC-3 were purchased from ATCC (American Type Culture Collection, Manassas, VA). Human pancreatic carcinoid BON cells were a kind gift from Dr. Courtney Townsend (University of Texas—Galveston) and cultured as described previously.\n(§2) The kits for the cell proliferation assay (MTT Assay) were purchased from Promega (Madison, WI) and the protocol was the same as described previously."}, "[2]": {"test_system": "pancreatic cancer CFPAC-1 cells", "assay": "Cell proliferation assay (MTT), CFPAC-1", "format": "cell-based, human", "settings": "table: mean ± SEM (n)", "procedure": "as §1, §2"}, "[3]": {"test_system": "pancreatic carcinoid BON cells", "assay": "Cell proliferation assay (MTT), BON", "format": "cell-based, human", "settings": "table: mean ± SEM (n)", "procedure": "as §1, §2"}, "[4]": {"test_system": "prostate cancer PC-3 cells", "assay": "Cell proliferation assay (MTT), PC-3", "format": "cell-based, human", "settings": "table: mean ± SEM (n)", "procedure": "as §1, §2"}, "[5]": {"test_system": "leukemia MOLT-4 cells", "assay": "Cell proliferation assay (MTT), MOLT-4", "format": "cell-based, human", "settings": "table: mean ± SEM (n)", "procedure": "as §1, §2"}, "[6]": {"test_system": "pancreatic carcinoid BON tumors", "assay": "Tumor growth, continuous drug-releasing pellets, BON tumors", "format": "in vivo, nude mice", "settings": "5 mg/pellet", "procedure": "The cytotoxic CPT-SST conjugate JF-10-81 was synthesized as described previously. Continuous drug-releasing pellets containing JF-10-81 (5 mg/pellet) formulated to release drug for 60 days, were made by Innovative Research of America (Sarasota, FL).\nMale nude mice, 5–7 weeks of age upon arrival, were purchased from the National Cancer Institute (NCI, Frederik, MD). The animal study was approved by the Tulane University Health Sciences Center Institutional Animal Care and Use Committee (IACUC).\nThe tumor tissue segments, grown from CFPAC-1, IMR32, MOLT-4 and BON cells injected into nude mice, were s.c. implanted into the flanks of nude mice as described previously. All the tumors were passaged from mouse to mouse. Tumor-carrying mice then were implanted with continuous drug-releasing pellets containing 5 mg of JF-10-81.\nFor treatments of pancreatic cancer CFPAC-1 tumors, mice were separated into 2 groups. Each mouse in the control group was implanted with a placebo pellet. Each mouse in the test group was implanted with a pellet containing JF-10-81 (5 mg/pellet) with a drug-release time of 60 days. Tumor volumes were measured and bodyweights were taken once a week. The treatment for all other tumors (BON, IMR32 and MOLT-4) was the same as above."}, "[7]": {"test_system": "non-transfected CHO cells", "assay": "Ligand-receptor binding assay, non-transfected CHO cells", "procedure": "The assay was performed as a modification of the one previously described. The binding buffer contained Dulbecco’s Modified Eagle’s Medium (DMEM), 50 mM HEPES, 2 mM glutamine, 11.5 mM glucose, 1% bovine serum albumin (BSA) and 5 mM sodium pyruvate. The binding reactions took place in 1.5 ml eppendorf tubes containing 70–100 pM of [^125I]Tyr^11-SST-14 from PerkinElmer (Boston, MA 02118–2512), 1–1.5 × 10^5 cells and the tested SST analogs (10^−5 to 10^−13 M) for a total volume of 300 μl. These were incubated at room temperature for 50–60 minutes and centrifuged for 1–2 min at 9,000 g. The cell pellets were washed twice with phosphate-buffered saline (PBS) and counted for total radioactivity in a Titertek gamma counter (Huntsville, AL). The analyses were done using GraphPad Prism 4.0 (San Diego, […]). For further internalization, cells were then re-suspended and incubated in HBSS (pH4, acetic acid) on ice for 10 min, washed with cold PBS and then re-counted for radioactivity. Due to the radioactivity of membrane-bound receptors being released by the acid wash, the remaining radioactivity represents the internalized peptide."}}}
{"smiles": "CC[C@@]1(O)C(=O)OCc2c1cc1n(c2=O)Cc2cc3ccccc3nc2-1", "note": "[CPT, camptothecin]", "values": [{"measurement": "EC50", "setting": "[1]; Homo sapiens, IMR-32, MTT assay", "value": 0.0028, "unit": "µM"}, {"measurement": "EC50", "setting": "[1]; MTT assay", "value": "0.00282 ± 0.00014", "unit": "µM"}, {"measurement": "EC50", "setting": "[2]; Homo sapiens, CFPAC-1, MTT assay", "value": 0.0255, "unit": "µM"}, {"measurement": "EC50", "setting": "[2]; MTT assay", "value": "0.0255 ± 0.0056", "unit": "µM"}, {"measurement": "EC50", "setting": "[3]; Homo sapiens", "value": 0.171, "unit": "µM"}, {"measurement": "EC50", "setting": "[3]", "value": "0.171 ± 0.0146", "unit": "µM"}, {"measurement": "EC50", "setting": "[4]; Homo sapiens, PC-3, MTT assay", "value": 0.0208, "unit": "µM"}, {"measurement": "EC50", "setting": "[4]; MTT assay", "value": "0.0208 ± 0.00282", "unit": "µM"}, {"measurement": "EC50", "setting": "[5]; Homo sapiens, MOLT-4, MTT assay", "value": 0.002, "unit": "µM"}, {"measurement": "EC50", "setting": "[5]; MTT assay", "value": "0.00196 ± 0.00032", "unit": "µM"}, {"measurement": "Inhibition (%)", "setting": "[6]; 42 days, vs placebo", "value": 42, "unit": "%"}, {"measurement": "percentage increase of tumor volumes", "setting": "[6]; vs initial", "value": 278, "unit": "%"}]}
{"smiles": "C[C@H](N)C(=O)NCC(=O)N[C@H]1CSSC[C@@H](C(=O)O)NC(=O)[C@H](CO)NC(=O)[C@H]([C@@H](C)O)NC(=O)[C@H](Cc2ccccc2)NC(=O)[C@H]([C@@H](C)O)NC(=O)[C@H](CCCCN)NC(=O)[C@H](Cc2c[nH]c3ccccc23)NC(=O)[C@H](Cc2ccccc2)NC(=O)[C@H](Cc2ccccc2)NC(=O)[C@H](CC(N)=O)NC(=O)[C@H](CCCCN)NC1=O", "note": "[SST-14]", "values": [{"measurement": "affinity to the non-transfected CHO cells", "setting": "[7]", "value": "no affinity"}]}
